The source made the active and inactive calls. No cut-off for these calls is given here.
Experiments:
[1] = target: Human immunodeficiency virus type 1 integrase (Human immunodeficiency virus 1) (UniProt Q7ZJM1); experiment: Inhibition of HIV1 recombinant integrase in presence of manganese
[2] = target: T1, Human immunodeficiency virus type 1 integrase (Human immunodeficiency virus 1, UniProt Q7ZJM1); experiment: Inhibition of recombinant HIV1 integrase strand transfer activity by gel-based assay in presence of magnesium
[3] = target: T1, Human immunodeficiency virus type 1 integrase; experiment: Inhibition of recombinant HIV1 integrase 3'-end processing activity by gel-based assay in presence of magnesium
[4] = target: T1, Human immunodeficiency virus type 1 integrase
Description: Inhibition of recombinant HIV1 integrase strand transfer activity by high throughput electrochemiluminescent assay in presence of magnesium

U-937 = experiment: Cytotoxicity against human U937 cells after 24 hrs by MTT assay; details: u-937, 24 h
[5] = tested on: Human immunodeficiency virus 1; experiment: Antiviral activity against HIV1-infected in human H9/HTLV 3B cells after 4 days; type: functional, organism-based; details: Human immunodeficiency virus 1, 96 h

Human immunodeficiency virus type 1 integrase (Human immunodeficiency virus 1), sequence (Q7ZJM1 as listed by the source): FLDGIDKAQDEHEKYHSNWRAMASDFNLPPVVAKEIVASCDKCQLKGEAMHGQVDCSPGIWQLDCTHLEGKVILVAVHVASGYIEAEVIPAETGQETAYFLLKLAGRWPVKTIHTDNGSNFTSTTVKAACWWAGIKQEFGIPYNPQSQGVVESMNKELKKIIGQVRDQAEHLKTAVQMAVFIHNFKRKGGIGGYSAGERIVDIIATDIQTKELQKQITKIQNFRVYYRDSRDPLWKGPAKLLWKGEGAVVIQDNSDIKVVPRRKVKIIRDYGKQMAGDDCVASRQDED
T1 sequence (Q7ZJM1 whole entry): as the sequence (Q7ZJM1 as listed by the source) above

CCOC(=O)/C(O)=C/C(=O)c1cn(Cc2ccc(F)cc2)c2ccc(Cl)cc2c1=O
Activity [1]: Active | IC50 [2]: 3 µM | IC50 [3]: > 333 µM | IC50 [4]: 21 µM

O=C(O)/C(O)=C/C(=O)c1ccc2c(c1)c(=O)c(C(=O)/C=C(\O)C(=O)O)cn2Cc1ccc(F)cc1
CC50 (U-937): > 200 µM

O=C(O)C(=O)CC(=O)c1cccn1Cc1ccc(F)cc1
EC50 [5]: 1 µM

CCOC(=O)/C(O)=C/C(=O)c1c[nH]c2ccc(Cl)cc2c1=O
IC50 [2]: 2.1 µM | IC50 [3]: 120 µM | IC50 [4]: 3.3 µM

CCOC(=O)/C(O)=C/C(=O)c1cn(Cc2ccc(F)cc2)c2cc(Cl)c(Cl)cc2c1=O
Activity [1]: Active | IC50 [2]: 1.8 µM | IC50 [3]: 135 µM | IC50 [4]: 3.9 µM | CC50 (U-937): 72 µM

CCOC(=O)/C(O)=C/C(=O)c1c[nH]c2cc(Cl)ccc2c1=O
IC50 [2]: 224 µM | IC50 [3]: > 333 µM | IC50 [4]: > 111 µM

O=C(O)/C(O)=C/C(=O)c1cn(Cc2ccc(F)cc2)c2ccccc2c1=O
Activity [1]: Active | IC50 [2]: 0.06 µM | IC50 [3]: 14 µM | IC50 [4]: 0.04 µM | CC50 (U-937): > 200 µM

O=C(O)/C(O)=C/C(=O)c1c[nH]c2cc(Cl)ccc2c1=O
IC50 [2]: 17 µM | IC50 [3]: > 333 µM | IC50 [4]: 37 µM

CCOC(=O)/C(O)=C/C(=O)c1cn(Cc2ccc(F)cc2)c2cc(F)ccc2c1=O
Activity [1]: Active | IC50 [2]: 1.2 µM | IC50 [3]: > 333 µM | IC50 [4]: 1.3 µM | CC50 (U-937): > 200 µM

O=C(O)/C(O)=C/C(=O)c1c[nH]c2ccc(Cl)cc2c1=O
IC50 [2]: 56 µM | IC50 [3]: 166 µM | IC50 [4]: > 111 µM

CCOC(=O)/C(O)=C/C(=O)c1cn(Cc2ccc(F)cc2)c2cc(Cl)ccc2c1=O
Activity [1]: Active | IC50 [2]: 3.6 µM | IC50 [3]: > 333 µM | IC50 [4]: 14 µM

O=C(O)/C(O)=C/C(=O)c1cn(Cc2ccc(F)cc2)c2cc(Cl)ccc2c1=O
Activity [1]: Active | IC50 [2]: 0.11 µM | IC50 [3]: 4 µM | IC50 [4]: 0.019 µM | CC50 (U-937): > 200 µM

O=C(O)/C(O)=C/C(=O)c1cn(Cc2ccc(F)cc2)c2ccc(F)cc2c1=O
Activity [1]: Active | IC50 [3]: 2.3 µM | CC50 (U-937): > 200 µM

O=C(O)/C(O)=C/C(=O)c1cn(Cc2ccc(F)cc2)c2c(F)cccc2c1=O
Activity [1]: Active | IC50 [2]: 0.16 µM | IC50 [3]: 16 µM | IC50 [4]: 0.018 µM | CC50 (U-937): > 200 µM

O=C(O)/C(O)=C/C(=O)c1cn(Cc2ccc(F)cc2)c2cc(F)ccc2c1=O
Activity [1]: Active | IC50 [2]: 0.05 µM | IC50 [3]: 4.4 µM | IC50 [4]: 0.02 µM | CC50 (U-937): > 200 µM

O=C(O)/C(O)=C/C(=O)c1cn(Cc2ccc(F)cc2)c2cc(N3CCCC3)ccc2c1=O
Activity [1]: Active | IC50 [2]: 0.18 µM | IC50 [3]: 14 µM | IC50 [4]: 0.028 µM | CC50 (U-937): > 200 µM

CCOC(=O)/C(O)=C/C(=O)c1cn(Cc2ccc(F)cc2)c2ccc(F)cc2c1=O
Activity [1]: Active | IC50 [2]: 0.23 µM | IC50 [3]: > 333 µM | IC50 [4]: 0.58 µM | CC50 (U-937): > 200 µM

O=C(O)/C(O)=C/C(=O)c1cn(Cc2ccc(F)cc2)c2c(Cl)cccc2c1=O
Activity [1]: Active | IC50 [2]: 0.51 µM | IC50 [3]: 44 µM | CC50 (U-937): > 200 µM

CCOC(=O)/C(O)=C/C(=O)c1cn(Cc2ccc(F)cc2)c2ccccc2c1=O
Activity [1]: Active | IC50 [2]: 0.44 µM | IC50 [3]: 135 µM | IC50 [4]: 0.67 µM | CC50 (U-937): 99 µM

CCOC(=O)/C(O)=C/C(=O)c1cn(Cc2ccc(F)cc2)c2c(Cl)cccc2c1=O
Activity [1]: Active | IC50 [2]: 5.2 µM | IC50 [3]: > 333 µM | IC50 [4]: 32 µM | CC50 (U-937): > 200 µM

CCOC(=O)/C(O)=C/C(=O)c1cn(Cc2ccc(F)cc2)c2cc(N3CCCC3)ccc2c1=O
Activity [1]: Active | IC50 [2]: 2.7 µM | IC50 [3]: 110 µM | IC50 [4]: 2.3 µM | CC50 (U-937): > 200 µM

O=C(O)/C(O)=C/C(=O)c1cn(Cc2ccc(F)cc2)c2cc(Cl)c(Cl)cc2c1=O
Activity [1]: Active | IC50 [2]: 0.075 µM | IC50 [3]: 11 µM | IC50 [4]: 0.033 µM | CC50 (U-937): 156 µM

O=C(O)/C(O)=C/C(=O)c1cn(Cc2ccc(F)cc2)c2ccc(Cl)cc2c1=O
Activity [1]: Active | IC50 [2]: 0.4 µM | IC50 [3]: 6.4 µM | IC50 [4]: 0.028 µM | CC50 (U-937): > 200 µM

CCOC(=O)/C(O)=C/C(=O)c1cn(Cc2ccc(F)cc2)c2c(F)cccc2c1=O
Activity [1]: Active | IC50 [2]: 5.2 µM | IC50 [3]: > 333 µM | IC50 [4]: 26 µM | CC50 (U-937): > 200 µM

From ChEMBL document CHEMBL1155934, “Novel quinolinonyl diketo acid derivatives as HIV-1 integrase inhibitors: design, synthesis, and biological activities” (J Med Chem, 2008)
